Here are results for 27 compounds from patent US20130217664A1, “NOVEL COMPOUNDS USEFUL FOR THE TREATMENT OF DEGENERATIVE AND INFLAMMATORY DISEASES” (priority 2012, published 2013).

Bounds are passed on as bounds.

This experiment concerns the target T1, human JAK1 (Homo sapiens, UniProt P23458).
T1 construct: catalytic domain, amino acids 866-1154; catalog number PV4774; purchased Invitrogen PV4774
Nature of the experiment: JAK1 inhibition assay (polyGT substrate / Ulight-JAK1 peptide). Format: biochemical. The settings on record: recombinant human JAK1 catalytic domain; polyGT or Ulight-JAK1 peptide assay. The protocol: 1.1 JAK1 Inhibition Assay
1.1.1 JAK1 Assay polyGT Substrate
After 45 min at 30° C., reactions are stopped by adding of 25 μL/well of 150 mM phosphoric acid. […] Plates are washed 6 times with 300 μL per well of a 75 mM phosphoric acid solution and the bottom of the plates is sealed. 40 μL/well of Microscint-20 is added, the top of the plates is sealed and readout is performed using the Topcount (Perkin Elmer). Kinase activity is calculated by subtracting counts per min (cpm) obtained in the presence of a positive control inhibitor (10 μM staurosporine) from cpm obtained in the presence of vehicle. The ability of a test compound to inhibit this activity is determined as:
Percentage inhibition=((cpm determined for sample with test compound present−cpm determined for sample with positive control inhibitor)divided by(cpm determined in the presence of vehicle−cpm determined for sample with positive control inhibitor))*100.
Dose dilution series are prepared for the compounds enabling the testing of dose-response effects in the JAK1 assay and the calculation of the IC50 for each compound.
1.1.2 JAK1 Ulight-JAK1 Peptide Assay
After 60 min at room temperature, reactions were stopped by adding 20 μL/well of detection mixture (1× detection buffer (Perkin Elmer, catalog number CR97-100C), 0.5 nM Europium-anti-phosphotyrosine (PT66) (Perkin Elmer, catalog number AD0068), 10 mM EDTA). […] Kinase activity was calculated by subtracting relative fluorescence units (RFU) obtained in the presence of a positive control inhibitor (10 μM staurosporine) from RFU obtained in the presence of vehicle. The ability of a test compound to inhibit this activity was determined as:
Percentage inhibition=((RFU determined for sample with test compound present−RFU determined for sample with positive control inhibitor)divided by(RFU determined in the presence of vehicle−RFU determined for sample with positive control inhibitor))*100.
Dose dilution series were prepared for the compounds enabling the testing of dose-response effects in the JAK1 assay and the calculation of the IC50 for the compound. Each compound is routinely tested at concentration of 20 μM followed by a 1/5 serial dilution, 10 points in a final concentration of 1% DMSO. […] The data are expressed as the average IC50 from the assays±standard error of the mean.

T1 sequence (P23458 866-1154): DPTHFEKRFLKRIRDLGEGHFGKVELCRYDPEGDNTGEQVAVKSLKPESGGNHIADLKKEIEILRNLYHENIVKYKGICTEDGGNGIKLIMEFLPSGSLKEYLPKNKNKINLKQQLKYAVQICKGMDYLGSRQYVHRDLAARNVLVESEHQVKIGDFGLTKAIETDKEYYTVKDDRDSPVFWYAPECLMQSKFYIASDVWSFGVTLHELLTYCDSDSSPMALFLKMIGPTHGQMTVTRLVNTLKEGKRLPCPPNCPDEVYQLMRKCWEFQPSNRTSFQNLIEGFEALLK

`Cn1cnc2cnc(N(CC3CC3)c3ccc(C#N)cc3F)cc21` [Compound 282, 4-[Cyclopropylmethyl-(1-methyl-1H-imidazo[4,5-c]pyridin-6-yl)-amino]-3-fluoro-benzonitrile]: the IC50 (as a rule, the concentration at which inhibition is half-maximal) is > 1000 nM.

Regarding `CN(c1cc2c(cn1)ncn2C)c1ccc(C2CCN(C(=O)OC(C)(C)C)CC2)cc1OC(F)F` [Compound 286, 4-{3-Difluoromethoxy-4-[methyl-(1-methyl-1H-imidazo[4,5-c]pyridin-6-yl)-amino]-phenyl}-piperidine-1-carboxylic acid tert-butyl ester], the IC50 fell in the range of 101 to 500 nM.

As for `CCc1cc(C2CCNCC2)ccc1N(C)c1cc2c(cn1)ncn2C` [Compound 187, N-(2-Ethyl-4-(piperidin-4-yl)phenyl)-N,1-dimethyl-1H-imidazo[4,5-c]pyridin-6-amine], the half-maximal inhibitory concentration (IC50) was in the range of 0.01 to 100 nM.

Take `CCc1cc(C(=O)NC2COC2)ccc1N(C)c1cc2c(cn1)ncn2C` [Compound 171, 3-ethyl-4-(methyl(1-methyl-1H-imidazo[4,5-c]pyridin-6-yl)amino)-N-(oxetan-3-yl)benzamide]: the IC50 lay within 101 to 500 nM.

As for `CCc1ccccc1N(CCC#N)c1cc2c(cn1)ncn2C` [Compound 285, 3-[(2-Ethyl-phenyl)-(1-methyl-1H-imidazo[4,5-c]pyridin-6-yl)-amino]-propionitrile], the half-maximal inhibitory concentration (IC50) lay within 101 to 500 nM.

Regarding `CCc1cc(-c2c(C)nn(C)c2C)ccc1N(C)c1cc2c(cn1)ncn2C` [Compound 138, N-(2-ethyl-4-(1,3,5-trimethyl-1H-pyrazol-4-yl)phenyl)-N,1-dimethyl-1H-imidazo[4,5-c]pyridin-6-amine], the 50% inhibitory concentration (IC50) is 101 to 500 nM.

As to `CN(c1cc2c(cn1)ncn2C)c1ccc(C2=CCN(C(=O)OC(C)(C)C)CC2)cc1OC(F)F` [Compound 281, 4-{3-Difluoromethoxy-4-[methyl-(1-methyl-1H-imidazo[4,5-c]pyridin-6-yl)-amino]-phenyl}-3,6-dihydro-2H-pyridine-1-carboxylic acid tert-butyl ester], the 50% inhibitory concentration (IC50) lay in the range of 101 to 500 nM.

Regarding `CCc1ccccc1N(C)c1cc2c(cn1)ncn2CC` [Compound 297, 1-ethyl-N-(2-ethylphenyl)-N-methyl-1H-imidazo[4,5-c]pyridin-6-amine], the IC50 was 501 to 1000 nM.

`CCc1cc(CNCC(C)(C)O)ccc1N(C)c1cc2c(cn1)ncn2C` [Compound 169, 1-(3-ethyl-4-(methyl(1-methyl-1H-imidazo[4,5-c]pyridin-6-yl)amino)benzylamino)-2-methylpropan-2-ol]: the 50% inhibitory concentration (IC50) was 0.01 to 100 nM.

For the compound `CCc1cc(Cn2ccnc2C)ccc1N(C)c1cc2c(cn1)ncn2C` [Compound 173, N-(2-Ethyl-4-((2-methyl-1H-imidazol-1-yl)methyl)phenyl)-N,1-dimethyl-1H-imidazo[4,5-c]pyridin-6-amine], the IC50 is 0.01 to 100 nM.

As to `CC(=O)N1CC(c2ccc(N(C)c3cc4c(cn3)ncn4C)c(F)c2)C1` [Compound 278, 1-(3-{3-Fluoro-4-[methyl-(1-methyl-M-imidazo[4,5-c]pyridin-6-yl)-amino]-phenyl}-azetidin-1-yl)-ethanone], the IC50 is 501 to 1000 nM.

In the case of `CCc1ccccc1N(C)c1cc2c(cn1)ncn2C1CC1` [Compound 296, 1-cyclopropyl-N-(2-ethylphenyl)-N-methyl-1H-imidazo[4,5-c]pyridin-6-amine], the IC50 is 501 to 1000 nM.

`CCc1cc(C2CCN(C(=O)OC(C)(C)C)CC2)ccc1N(C)c1cc2c(cn1)ncn2C` [Compound 180, tert-butyl 4-(3-ethyl-4-(methyl(1-methyl-1H-imidazo[4,5-c]pyridin-6-yl)amino)phenyl)piperidine-1-carboxylate]: the IC50 was in the range of 101 to 500 nM.

On to `CCc1cc(C(=O)NC2CN(C(=O)OC(C)(C)C)C2)ccc1N(C)c1cc2c(cn1)ncn2C` [Compound 170, tert-butyl 3-(3-ethyl-4-(methyl(1-methyl-1H-imidazo[4,5-c]pyridin-6-yl)amino)benzamido)azetidine-1-carboxylate], for which the half-maximal inhibitory concentration (IC50) was in the range of 501 to 1000 nM.

For `CCc1cc(-c2cnc(N3CCOCC3)nc2)ccc1N(C)c1cc2c(cn1)ncn2C` [Compound 184, N-(2-Ethyl-4-(2-morpholinopyrimidin-5-yl)phenyl)-N,1-dimethyl-1H-imidazo[4,5-d]pyridin-6-amine], the IC50 fell in the range of 101 to 500 nM.

On to `CCc1cc(-c2n[nH]c(C)n2)ccc1N(C)c1cc2c(cn1)ncn2C` [Compound 183, N-(2-ethyl-4-(5-methyl-1H-1,2,4-triazol-3-yl)phenyl)-N,1-dimethyl-1H-imidazo[4,5-c]pyridin-6-amine], for which the IC50 fell in the range of 0.01 to 100 nM.

As to `CCc1cc(C(=O)NC2CN(S(C)(=O)=O)C2)ccc1N(C)c1cc2c(cn1)ncn2C` [Compound 175, 3-Ethyl-4-(methyl(1-methyl-1H-imidazo[4,5-c]pyridin-6-yl)amino)-N-(1-(methylsulfonyl)azetidin-3-yl)benzamide], the IC50 lay in the range of 501 to 1000 nM.

With `CN(c1cc2c(cn1)ncn2C)c1ccc(C2CCN(C(=O)OC(C)(C)C)CC2)cc1F` [Compound 279, 4-{3-Fluoro-4-[methyl-(1-methyl-M-imidazo[4,5-c]pyridin-6-yl)-amino]-phenyl}-piperidine-1-carboxylic acid tert-butyl ester], the half-maximal inhibitory concentration (IC50) was > 1000 nM.

Turning to `CCc1cc(C(=O)NC2CNC2)ccc1N(C)c1cc2c(cn1)ncn2C` [Compound 174, N-(azetidin-3-yl)-3-ethyl-4-(methyl(1-methyl-1H-imidazo[4,5-c]pyridin-6-yl)amino)benzamide], the IC50 is 101 to 500 nM.

In the case of `CCc1cc(C(=O)O)ccc1N(C)c1cc2c(cn1)ncn2C` [Compound 185, 3-Ethyl-4-(methyl(1-methyl-1H-imidazo[4,5-c]pyridin-6-yl)amino)benzoic acid], the IC50 was > 1000 nM.

Take `CCNC(=O)NCc1ccc(N(C)c2cc3c(cn2)ncn3C)c(CC)c1` [Compound 192, 1-Ethyl-3-(3-ethyl-4-(methyl(1-methyl-1H-imidazo[4,5-c]pyridin-6-yl)amino)benzyl)urea]: the half-maximal inhibitory concentration (IC50) lay in the range of 0.01 to 100 nM.

Take `CCc1cc(-c2n[nH]c(C3CC3)n2)ccc1N(C)c1cc2c(cn1)ncn2C` [Compound 188, N-(4-(5-cyclopropyl-1H-1,2,4-triazol-3-yl)-2-ethylphenyl)-N,1-dimethyl-1H-imidazo[4,5-c]pyridin-6-amine]: the IC50 was in the range of 101 to 500 nM.

As for `CCc1cc(CNC2CCS(=O)(=O)CC2)ccc1N(C)c1cc2c(cn1)ncn2C` [Compound 146, {4-[(1,1-Dioxo-hexahydrothiopyran-4-ylamino)-methyl]-2-ethyl-phenyl}-methyl-(1-methyl-1H-imidazo[4,5-c]pyridin-6-yl)-amine], the IC50 is 0.01 to 100 nM.

Consider `CC(NC(=O)OC(C)(C)C)c1ccc(N(C)c2cc3c(cn2)ncn3C)c(F)c1` (stereo not drawn) [Compound 268, tert-Butyl (1-(3-fluoro-4-(methyl(1-methyl-1H-imidazo[4,5-c]pyridin-6-yl)amino)phenyl)ethyl)carbamate], for which the IC50 is > 1000 nM.

For the compound `CCc1cc(C(=O)NC2CCCN(C)C2)ccc1N(C)c1cc2c(cn1)ncn2C` (stereo not drawn) [Compound 152, 3-ethyl-4-(methyl(1-methyl-1H-imidazo[4,5-c]pyridin-6-yl)amino)-N-(1-methylpiperidin-3-yl)benzamide], the IC50 fell in the range of 0.01 to 100 nM.

On to `CCOC(=O)c1ccc(N(CC)c2cc3c(cn2)ncn3C)cc1` [Compound 7, 4-[Ethyl-(1-methyl-1H-imidazo[4,5-c]pyridin-6-yl)-amino]-benzoic acid ethyl ester], for which the concentration for half-maximal inhibition (IC50) was > 1000 nM.

Take `CCc1cc(-c2cn(C)cn2)ccc1N(C)c1cc2c(cn1)ncn2C` [Compound 145, N-(2-ethyl-4-(1-methyl-1H-imidazol-4-yl)phenyl)-N,1-dimethyl-1H-imidazo[4,5-c]pyridin-6-amine]: the IC50 is 0.01 to 100 nM.
